Experimental findings from US20120252741A1, “NOVEL SEMI-SYNTHETIC GLYCOPEPTIDES AS ANTIBACTERIAL AGENTS” (priority 2008, published 2012) are described below.

Holding throughout (assay type): cell-based
Test [1] concerns Staphylococcus aureus 757 (MRSA). The test can be described thus: MIC, broth microdilution, SA 757. The settings on record: read-out: MIC SA 757. Put shortly:
(§1)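 MIC determined by CLSI broth microdilution in Mueller-Hinton broth. Strains are clinical isolates sensitive or resistant to natural glycopeptides.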

For test [2], the system named is Staphylococcus aureus 2012 (VISA). Put plainly: MIC, broth microdilution, SA 2012. The conditions noted are these: read-out: MIC SA 2012. Put shortly: as §1
For orientation: Broth dilution looks for growth in wells or tubes with falling amounts of substance.

Test [3] concerns Staphylococcus epidermidis 831 (MRSE). The test can be described thus: MIC, broth microdilution, SE 831. The settings on record: Staphylococcus epidermidis, read-out: MIC SE 831. Put shortly:
as §1

Test [4] concerns Staphylococcus aureus 100 (ATCC 29213). The test can be described thus: MIC, broth microdilution, SA 100. The settings on record: Staphylococcus aureus, ATCC29213, class symbols, read-out: MIC SA 100. Put shortly:
as §1

Test [5] has as its system Enterococcus faecalis 848 (VRE, Van A). Put plainly: MIC, broth microdilution, EFc 848. The settings on record: VRE, Van A, class symbols, read-out: MIC E FC 848. Put shortly: as §1
Another test deals with Enterococcus faecium 800. Put plainly: MIC, broth microdilution, EFcm 800. The conditions noted are these: Enterococcus faecium, 800, class symbols, read-out: MIC E FCM 800. Put shortly:
as §1

Test [6] deals with Streptococcus pneumoniae 1195 (ATCC 49619). The test can be described thus: MIC, broth microdilution, SPNE 1195. The conditions noted are these: Streptococcus pneumoniae, ATCC49619, class symbols, read-out: MIC S PNE 1195. In a few lines:
as §1

Test [7] has as its system Staphylococcus epidermidis 835. Put plainly: MIC, broth microdilution, SE 835. The conditions noted are these: Staphylococcus epidermidis, 835, class symbols, read-out: MIC SE 835. In a few lines: as §1
Test [8] concerns Enterococcus faecalis 101 (ATCC 29212). Put plainly: MIC, broth microdilution, EFc 101. The settings on record: Enterococcus faecalis, ATCC29212, class symbols, read-out: MIC E FC 101. In a few lines:
as §1

The test system of test [9] is Streptococcus pyogenes 712. Put plainly: MIC, broth microdilution, SPY 712. The conditions noted are these: Streptococcus pyogenes, 712, class symbols, read-out: MIC S PYO 712. In a few lines: as §1
The subject of test [10] is Enterococcus faecium 752 (VRE, Van A). The test can be described thus: MIC, broth microdilution, EFcm 752. The settings on record: VRE, Van A, class symbols, read-out: MIC E FCM 752. In a few lines: as §1
Setting [11] is: Table 2, in the presence of 0.002% Polysorbate 80, class symbols.
[12] abbreviates: Table 2, in the presence of 0.002% Polysorbate 80.

Molecules are shown by their SMILES. In brackets after ≈: the same amount, converted by molar mass. Read-outs that look alike come from different tables or passages of the source.

One may read the MIC as the least concentration at which growth counts as inhibited. Turning to `CCCCCCCCCC(=O)NC(=O)C[C@@H]1NC(=O)[C@H](NC(=O)[C@@H](CC(C)C)NC)[C@H](O)c2ccc(c(Cl)c2)Oc2cc3cc(c2O[C@@H]2O[C@H](CO)[C@@H](O)[C@H](O)[C@H]2O[C@H]2C[C@](C)(N)[C@H](O)[C@H](C)O2)Oc2ccc(cc2Cl)[C@@H](O)[C@@H]2NC(=O)[C@H](NC(=O)[C@@H]3NC1=O)c1ccc(O)c(c1)-c1c(O)cc(O)cc1[C@@H](C(=O)NC1C3CC4CC(C3)CC1C4)NC2=O` (stereo partly drawn) [Compound 43], the minimal inhibitory concentration (MIC) in test [1] (Table 1, class symbols) fell in the range of 0.5 to 1 µg/mL (≈ 0.288 to 0.576 µM); in test [2] (Table 1, class symbols), 1 to 2 µg/mL (≈ 0.576 to 1.15 µM); in test [3] (Table 1, class symbols), 0.01 to 0.5 µg/mL (≈ 0.00576 to 0.288 µM); in [4] (Table 1), 0.01 to 0.5 µg/mL (≈ 0.00576 to 0.288 µM); in [5] (Table 1), 1 to 2 µg/mL (≈ 0.576 to 1.15 µM); in the test with Enterococcus faecium 800 (Table 1), 0.01 to 0.5 µg/mL (≈ 0.00576 to 0.288 µM). In addition, the minimum inhibitory concentration (MIC) in test [6] (Table 1), in [7] (Table 1), in test [8] (Table 1), in test [9] (Table 1) and in test [10] (Table 1) was 0.01 to 0.5 µg/mL (≈ 0.00576 to 0.288 µM) in each case.
For `CNCCOc1ccc(C(=O)NC(=O)C[C@@H]2NC(=O)[C@H](NC(=O)[C@@H](CC(C)C)NC)[C@H](O)c3ccc(c(Cl)c3)Oc3cc4cc(c3O[C@@H]3O[C@H](CO)[C@@H](O)[C@H](O)[C@H]3O[C@H]3C[C@](C)(N)[C@H](O)[C@H](C)O3)Oc3ccc(cc3Cl)[C@@H](O)[C@@H]3NC(=O)[C@H](NC(=O)[C@@H]4NC2=O)c2ccc(O)c(c2)-c2c(O)cc(O)cc2[C@@H](C(=O)NC2C4CC5CC(C4)CC2C5)NC3=O)cc1OCCNC` (stereo partly drawn) [Compound 152], the MIC in [1] (setting [11]) is 0.01 to 0.5 µg/mL; in [2] (setting [11]), 1 to 2 µg/mL; in test [3] (setting [11]), 0.01 to 0.5 µg/mL; in [4] (setting [12]) it was 0.01 to 0.5 µg/mL; in [5] (setting [12]) it was more than 16 µg/mL; in the test on Enterococcus faecium 800 (setting [12]), 0.01 to 0.5 µg/mL. Moreover, the MIC lay in the range of 0.01 to 0.5 µg/mL in [6] (setting [12]); 0.01 to 0.5 µg/mL in test [7] (setting [12]); 0.01 to 0.5 µg/mL in [8] (setting [12]); 0.01 to 0.5 µg/mL in [9] (setting [12]); 4 to 8 µg/mL in [10] (setting [12]).
As to `CCCCCCC(C)C(=O)NC(=O)C[C@@H]1NC(=O)[C@H](NC(=O)[C@@H](CC(C)C)NC)[C@H](O)c2ccc(c(Cl)c2)Oc2cc3cc(c2O[C@@H]2O[C@H](CO)[C@@H](O)[C@H](O)[C@H]2O[C@H]2C[C@](C)(N)[C@H](O)[C@H](C)O2)Oc2ccc(cc2Cl)[C@@H](O)[C@@H]2NC(=O)[C@H](NC(=O)[C@@H]3NC1=O)c1ccc(O)c(c1)-c1c(O)cc(O)cc1[C@@H](C(=O)NC1C3CC4CC(C3)CC1C4)NC2=O` (stereo partly drawn) [Compound 46], the MIC lay within 0.01 to 0.5 µg/mL in [1] (setting [11]); 2 to 4 µg/mL in [2] (setting [11]); 0.01 to 0.5 µg/mL in test [3] (setting [11]); 0.01 to 0.5 µg/mL in test [4] (setting [12]); 2 to 4 µg/mL in test [5] (setting [12]); 0.01 to 0.5 µg/mL in the test on Enterococcus faecium 800 (setting [12]). Also, the MIC in test [6] (setting [12]), in [7] (setting [12]), in test [8] (setting [12]), in test [9] (setting [12]) and in [10] (setting [12]) was 0.01 to 0.5 µg/mL in each case.
